Results on 2 compounds are retold here after US4104267A, “Somatostatin analogs” (American Home Products Corporation, priority 1977, dated 1978).

Counter-ions that a name gives are not always drawn. Residues, ends and D or L forms follow the SMILES beside them.

What all share (format): in vivo
The test system of one assay is growth hormone (GH). As to the kind of experiment: Suppression of Growth Hormone (duration of activity, 2 and 4 hours after sc injection). Particulars: 1 mg/kg sc, nonfasted male rats, paired saline control; for plasma growth hormone (GH) concentration, 2 Hr.: 2 hours after injection; for plasma growth hormone (GH) concentration, 4 Hr.: 4 hours after injection. On the procedure:
A subcutaneous (sc) injection of peptide solubilized or suspended in physiological saline, is given to Charles River (CD® nonfasted male rats. Matched saline control solution sc injected rats serve as control animals so that every experimental rat is paired with a control rat. The rats are kept in separate cages and 20 minutes before the end of the test time period they are given an intraperitoneal (i.p.) injection of Nembutal® at a dose of 50 mg/kg. Blood samples are obtained by cardiac puncture and the plasma separated for the radioimmunoassay of growth hormone (GH) concentration (ng/ml.). Time periods after injection of 2 and 4 hours are used to test the duration of the activity of the peptide to suppress circulating peripheral GH levels. Comparisons between control and experimental GH values at each time are evaluated by the Student "t" test and statistical significance (p) at the 0.05 level or lower is used as the index of activity.

For the next assay, the system named is growth hormone. As to the kind of experiment: Suppression of Growth Hormone, Glucagon and Insulin (arginine-stimulated, nembutal-anesthetized rats): growth hormone. Particulars: for GH: albino male rats, arginine stimulation, blood 15 min after compound. On the procedure: (§1) Albino male rats are arranged in the three groups (nine rats/group) and injected i.p. with nembutal at 50 mg/kg. Fifteen minutes after the nembutal injection they are injected s.c. according to group with (a) test compound, typically 10-2000 μg/kg.; )b) SRIF 200 μg/kg.; or (c) physiological saline. Ten minutes. later 0.5 ml. of arginine (300 mg/ml. pH 7.2) is injected into the heart. The rats are decapitated five minutes after receiving the arginine, and the blood is collected into Trasylol-EDTA. Appropriate aliquots are then assayed for growth hormone, glucagon and insulin. […] Comparisons between control and experimental values are statistically evaluated by the analysis of variants method and statistical significance (p) at 0.05 or lower is used as the index of activity.

A further assay concerns insulin. In words: Suppression of Growth Hormone, Glucagon and Insulin (arginine-stimulated, nembutal-anesthetized rats): insulin. The following applies: albino male rats, arginine stimulation, blood 15 min after compound. The protocol: as §1
The test system of a further assay is glucagon. As to the kind of experiment: Suppression of Growth Hormone, Glucagon and Insulin (arginine-stimulated, nembutal-anesthetized rats): glucagon. The following applies: albino male rats, arginine stimulation, blood 15 min after compound. On the procedure:
as §1

Turning to `C[C@@H](O)[C@@H]1NC(=O)[C@H](Cc2ccccc2)NC(=O)[C@H]([C@@H](C)O)NC(=O)[C@H](CCCCN)NC(=O)[C@@H](Cc2c[nH]c3ccccc23)NC(=O)[C@H](Cc2ccccc2)NC(=O)[C@H](Cc2ccccc2)NC(=O)[C@H](Cc2c[nH]cn2)NC(=O)[C@H](Cc2c[nH]cn2)NC(=O)[C@@H](N)CSSC[C@@H](C(=O)O)NC(=O)[C@H](CO)NC1=O` [Compound I, L-Cysteinyl-L-Histidyl-L-Histidyl-L-Phenylalanyl-L-Phenylalanyl-D-Trptophyl-L-Lysyl-L-Threonyl-L-Phenylalanyl-L-Threonyl-L-Seryl-L-Cysteine Cyclic (1-12) Disulfide] (HELM PEPTIDE1{C.H.H.F.F.[dW].K.T.F.T.S.C}$PEPTIDE1,PEPTIDE1,1:R3-12:R3$$$V2.0), in the assay with growth hormone (GH), the “plasma growth hormone (GH) concentration, 2 Hr.” value stood at 32 ± 6 ng/mL and the “plasma growth hormone (GH) concentration, 4 Hr.” value came to 62 ± 13 ng/mL. This compound gave a GH with growth hormone (100 μg/kg s.c.) of 20 ± 8 ng/mL. This compound came in with an Insulin in the assay on insulin (100 μg/kg s.c.) of 202 ± 49 μU/ml. The Glucagon in the assay on glucagon (100 μg/kg s.c.) stood at 20 ± 8 pg/mL.

As to `C[C@@H](O)[C@@H]1NC(=O)[C@H](CCCCN)NC(=O)[C@@H](Cc2c[nH]c3ccccc23)NC(=O)[C@H](Cc2ccccc2)NC(=O)[C@H](Cc2ccccc2)NC(=O)[C@H](Cc2c[nH]cn2)NC(=O)[C@H](Cc2c[nH]cn2)NC(=O)[C@@H](N)CSSC[C@H](C(=O)O)NC(=O)[C@H](CO)NC(=O)[C@H]([C@@H](C)O)NC(=O)[C@H](Cc2ccccc2)NC1=O` [Compound II, L-Cysteinyl-L-Histidyl-L-Histidyl-L-Phenylalanyl-L-Phenylalanyl-D-Tryptophyl-L-Lysyl-L-Threonyl-L-Phenylalanyl-L-Threonyl-L-Seryl-D-Cysteine Cyclic (1-12) Disulfide, Diacetate Salt] (HELM PEPTIDE1{C.H.H.F.F.[dW].K.T.F.T.S.[dC]}$PEPTIDE1,PEPTIDE1,1:R3-12:R3$$$V2.0), the “plasma growth hormone (GH) concentration, 2 Hr.” value in the assay with growth hormone (GH) stood at 20 ± 3 ng/mL. In addition, the “plasma growth hormone (GH) concentration, 4 Hr.” value in the assay on growth hormone (GH) worked out at 107 ± 34 ng/mL. In addition, the GH in the assay on growth hormone (10 μg/kg s.c.) worked out at 110 ± 22 ng/mL; in the assay on growth hormone (100 μg/kg s.c.) it was 64 ± 20 ng/mL. The “hormone specificity of suppression” value with growth hormone (at low doses, growth hormone, glucagon and insulin) is “specific for the suppression of glucagon and growth hormone without affecting insulin secretion”. Further, the Insulin in the assay with insulin (10 μg/kg s.c.) is listed as 318 ± 54 μU/ml; in the assay with insulin (100 μg/kg s.c.) it was 165 ± 21 μU/ml. Moreover, the Glucagon was found to be 70 ± 7 pg/mL with glucagon (10 μg/kg s.c.) and 5 ± 2 pg/mL in the assay with glucagon (100 μg/kg s.c.).
